Source: the supplement of paper PMC11451515

Columns and labels:
Details in all cases: 48 h
[1] = tested on: NOMO1; test: cell viability relative to DMSO control; higher = less cytotoxic
Summary of the method: (§1)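 NOMO1 or SEM cells were plated at 500 cells/well and P12-Ichikawa cells at 1000 cells/well in 1536-well plates (5 μl), after each leukemia line had been adapted for at least four passages in each medium. Pin dosing delivered library compounds in DMSO at 11 threefold concentrations, 47 μM to 0.79 nM. CellTiter-Glo One luminescence was read after 48 h at 37°C. Viability is reported as a per-plate percentage of DMSO wells, with cell-free wells as background.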

[2] = tested on: P12-Ichikawa; test: as above
Summary of the method: as §1

[3] = tested on: SEM cells; test: as above
Summary of the method: as §1

[4] = tested on: NOMO1; test: AUC of viability dose-response curve (% viability x log10 dose units); higher = less sensitive
Summary of the method: (§2)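 Leukemia cells adapted to each medium were seeded in 1536-well plates (500 or 1000 cells/well) and given library compounds in DMSO for 48 h at 37°C. The 11 threefold doses spanned 47 μM to 0.79 nM, and CellTiter-Glo One luminescence was normalised per plate to DMSO and cell-free wells before four-parameter log-logistic fitting on log10 dose. Area under the curve was integrated with the trapezoidal rule, scaling curves above full viability and removing curves that failed quality control.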

[5] = tested on: P12-Ichikawa; test: as above
Summary of the method: as §2

[6] = tested on: SEM cells; test: as above
Summary of the method: as §2

CC1(C)C(N(O)C(=O)Nc2ccc(Cl)cc2)N(c2ccc(Cl)cc2)C(=O)N1CC(=O)N/N=C/C=C/c1ccc([N+](=O)[O-])o1 (stereo not given)
cell viability [%]
Details | [1] | [2] | [3]
HPLM + 10% dialyzed FBS, 0.000781 µM | 121 | 112 | 128
HPLM + 10% dialyzed FBS, 0.00234 µM | 118 | 109 | 117
HPLM + 10% dialyzed FBS, 0.00702 µM | 125 | 111 | 120
HPLM + 10% dialyzed FBS, 0.0211 µM | 124 | 113 | 119
HPLM + 10% dialyzed FBS, 0.0632 µM | 124 | 115 | 122
HPLM + 10% dialyzed FBS, 0.19 µM | 115 | 104 | 81.4
HPLM + 10% dialyzed FBS, 0.569 µM | 123 | 105 | 110
HPLM + 10% dialyzed FBS, 1.71 µM | 116 | 103 | 117
HPLM + 10% dialyzed FBS, 5.12 µM | 108 | 99.4 | 52.7
HPLM + 10% dialyzed FBS, 15.4 µM | 95.8 | 103 | 107
HPLM + 10% dialyzed FBS, 46.1 µM | 50.2 | 65.6 | 3.81
RPMI 5 mM glucose + 10% FBS, 0.000781 µM | 116 | 108 | –
RPMI 5 mM glucose + 10% FBS, 0.00234 µM | 111 | 105 | –
RPMI 5 mM glucose + 10% FBS, 0.00702 µM | 109 | 105 | –
RPMI 5 mM glucose + 10% FBS, 0.0211 µM | 120 | 110 | –
RPMI 5 mM glucose + 10% FBS, 0.0632 µM | 110 | 113 | –
RPMI 5 mM glucose + 10% FBS, 0.19 µM | 104 | 107 | –
RPMI 5 mM glucose + 10% FBS, 0.569 µM | 102 | 110 | –
RPMI 5 mM glucose + 10% FBS, 1.71 µM | 110 | 106 | –
RPMI 5 mM glucose + 10% FBS, 5.12 µM | 97.4 | 102 | –
RPMI 5 mM glucose + 10% FBS, 15.4 µM | 104 | 100 | –
RPMI 5 mM glucose + 10% FBS, 46.1 µM | 75.1 | 52.4 | –
RPMI 5 mM glucose + 10% dialyzed FBS, 0.000781 µM | 106 | 115 | 114
RPMI 5 mM glucose + 10% dialyzed FBS, 0.00234 µM | 107 | 104 | 115
RPMI 5 mM glucose + 10% dialyzed FBS, 0.00702 µM | 103 | 115 | 111
RPMI 5 mM glucose + 10% dialyzed FBS, 0.0211 µM | 124 | 111 | 113
RPMI 5 mM glucose + 10% dialyzed FBS, 0.0632 µM | 122 | 109 | 121
RPMI 5 mM glucose + 10% dialyzed FBS, 0.19 µM | 121 | 113 | 91.6
RPMI 5 mM glucose + 10% dialyzed FBS, 0.569 µM | 111 | 104 | 104
RPMI 5 mM glucose + 10% dialyzed FBS, 1.71 µM | 111 | 103 | 99.1
RPMI 5 mM glucose + 10% dialyzed FBS, 5.12 µM | 108 | 103 | 30.9
RPMI 5 mM glucose + 10% dialyzed FBS, 15.4 µM | 117 | 91.3 | 80.8
RPMI 5 mM glucose + 10% dialyzed FBS, 46.1 µM | 71.3 | 49 | 2.64

AUC of viability dose-response curve
Details | [4] | [5] | [6]
HPLM + 10% dialyzed FBS | 447 | 465 | 453
RPMI 5 mM glucose + 10% FBS | 447 | 461 | 386
RPMI 5 mM glucose + 10% dialyzed FBS | 468 | 453 | 382

COc1cc(/C=C/C(=O)O)ccc1O
cell viability [%]
Details | [1] | [2] | [3]
HPLM + 10% dialyzed FBS, 0.000781 µM | 76.1 | 89.1 | 80.5
HPLM + 10% dialyzed FBS, 0.00234 µM | 90.7 | 93 | 92.9
HPLM + 10% dialyzed FBS, 0.00702 µM | 91.8 | 91.4 | 64.5
HPLM + 10% dialyzed FBS, 0.0211 µM | 100 | 104 | 93.6
HPLM + 10% dialyzed FBS, 0.0632 µM | 107 | 95.7 | 92.8
HPLM + 10% dialyzed FBS, 0.19 µM | 100 | 102 | 90.1
HPLM + 10% dialyzed FBS, 0.569 µM | 103 | 107 | 91.9
HPLM + 10% dialyzed FBS, 1.71 µM | 98.8 | 99 | 106
HPLM + 10% dialyzed FBS, 5.12 µM | 82.6 | 103 | 44.8
HPLM + 10% dialyzed FBS, 15.4 µM | 108 | 106 | 89.9
HPLM + 10% dialyzed FBS, 46.1 µM | 101 | 107 | 100
RPMI 5 mM glucose + 10% FBS, 0.000781 µM | 84.9 | 90.9 | 94.1
RPMI 5 mM glucose + 10% FBS, 0.00234 µM | 112 | 88.5 | 89
RPMI 5 mM glucose + 10% FBS, 0.00702 µM | 87.8 | 91.9 | 62.1
RPMI 5 mM glucose + 10% FBS, 0.0211 µM | 93.6 | 84.4 | 84.1
RPMI 5 mM glucose + 10% FBS, 0.0632 µM | 95.2 | 88.5 | 99.5
RPMI 5 mM glucose + 10% FBS, 0.19 µM | 101 | 92 | 94.9
RPMI 5 mM glucose + 10% FBS, 0.569 µM | 92.2 | 99.4 | 101
RPMI 5 mM glucose + 10% FBS, 1.71 µM | 95.1 | 88.4 | 101
RPMI 5 mM glucose + 10% FBS, 5.12 µM | 107 | 79.1 | 37.5
RPMI 5 mM glucose + 10% FBS, 15.4 µM | 96.6 | 97.1 | 88.4
RPMI 5 mM glucose + 10% FBS, 46.1 µM | 104 | 101 | 98.1
RPMI 5 mM glucose + 10% dialyzed FBS, 0.000781 µM | 84.3 | 88.1 | 93.4
RPMI 5 mM glucose + 10% dialyzed FBS, 0.00234 µM | 91 | 89.8 | 99.2
RPMI 5 mM glucose + 10% dialyzed FBS, 0.00702 µM | 93.9 | 88.7 | 68.6
RPMI 5 mM glucose + 10% dialyzed FBS, 0.0211 µM | 93.1 | 94.1 | 110
RPMI 5 mM glucose + 10% dialyzed FBS, 0.0632 µM | 83.7 | 91.5 | 115
RPMI 5 mM glucose + 10% dialyzed FBS, 0.19 µM | 96.3 | 91.1 | 106
RPMI 5 mM glucose + 10% dialyzed FBS, 0.569 µM | 95.7 | 96.3 | 109
RPMI 5 mM glucose + 10% dialyzed FBS, 1.71 µM | 86.9 | 93.5 | 104
RPMI 5 mM glucose + 10% dialyzed FBS, 5.12 µM | 89.9 | 91.1 | 46
RPMI 5 mM glucose + 10% dialyzed FBS, 15.4 µM | 92.5 | 94.1 | 105
RPMI 5 mM glucose + 10% dialyzed FBS, 46.1 µM | 102 | 99 | 106

AUC of viability dose-response curve
Details | [4] | [5] | [6]
HPLM + 10% dialyzed FBS | 463 | 452 | 411
RPMI 5 mM glucose + 10% FBS | 452 | 434 | 412
RPMI 5 mM glucose + 10% dialyzed FBS | 438 | 441 | 460
